Assay results: patent US20190187129A1, “CANCER MODELING PLATFORMS AND METHODS OF USING THE SAME” (Wake Forest University Health Sciences, priority 2016, published 2019)
Entries after “also recorded” stand apart in the source; their conditions may differ.

How the values were obtained:
Assay type in all cases: cell-based
[1] = test system: HCT116-CACO2 ringed constructs; experiment: Ringed organoid drug screening, live-dead stain; conditions: for % dead: % live ratio: drug day 5, stain day 7; for cell type targeted in ringed construct (live-dead images): inner HCT116 versus outer CACO2, day 7
Protocol: Polydimethylsiloxane, or PDMS, was again used to coat the bottom of the wells. HCT116 cells were embedded within hyaluronan hydrogel and constructs were created on the PDMS surface. CACO2 cells that were also embedded within hyaluronan gel were used to create the outer ring around the HCT116 inner-ring construct (FIG. 9, panel A).
A live-dead stain was carried out on the ringed-constructs on day 7 and imaged on an Axiovert microscope (FIG. 9, panel B). The imaging software, MATLAB, was used to generate a % dead: % live ratio (or % red (medium grey in black and white images): % green (light grey in black and white images)) for the ringed-constructs. The values were then graphed showing the ratios for each of the concentrations of Regorafenib and 5-FU and against the control, untreated ratio (FIG. 9, panel C). At 100 μM, Regorafenib and 5-FU both have % dead: % live ratios of 0.98. This means that approximately half of the HCT116 and CACO2 cells are alive and half have been targeted by the anticancer drugs. When analyzing the relative cellular viability when the 1 μM and 10 μM concentrations of Regorafenib and 5-FU were administered, the % dead: % live ratios are much greater for the 5-FU solutions than for the Regorafenib solutions. At 1 μM, the % dead: % live ratio is 0.95 for 5-FU as opposed to 0.48 for Regorafenib, and at 10 μM, the % dead: % live ratio is 0.78 for 5-FU as opposed to 0.08 for Regorafenib. The % dead: % live ratios for the three concentrations of Regorafenib and 5-FU were substantially higher than the control % dead: % live ratio value of only 0.03.
Hydrogel Components of the Ringed Organoid Constructs: The hyaluronic acid-based hydrogel used in making the ringed organoids was a mixture of four components: Heprasil, Gelin-S, and PEGDA 2-ARM Acrylate crosslinker (Extralink), and Alkyne-PEG-Alkyne 2-ARM crosslinker (ESI BIO, California, USA). These components were mixed in a 4:4:1:1 ratio by volume. 0.1% Irgacure photoinitiator was added to each of the four components prior to their mixture and the […] were placed in a 37° C. incubator for a ˜30 minutes to solubilize. HCT116 and CACO2 cells were isolated in the passaging method previously mentioned and PDMS was used to coat the bottom of the 96-well plates.
Forming Ringed-Organoid Constructs: The four components of the hydrogel were added to the 15 mL centrifuge tube containing the HCT116 cell pellet and the cells were resuspended within the mixture. 10 μL of the HCT116 containing hydrogel were placed in the center of the wells and left untouched with aluminum foil covering the 96-well plates for ˜35 minutes. During this time, the PEGDA 2-ARM Acrylate will crosslink the gel, while the UV-sensitive 2-ARM Alkyne-PEG-Alkyne will remain uncrosslinked.
While waiting for the PEGDA to crosslink, add the four hydrogel components to the 15 mL centrifuge tube containing the isolated CACO2 cells and resuspend the cells within the gel. Remove the aluminum foil wrapping on the 96-well plate and inspect the construct to see if they have solidified yet. If so, take 25 μL of the CACO2-embedded-hydrogel and carefully place in the area around the HCT116 construct. Use the pipette tip to physically move the CACO2 gel around the construct on all sides. Use UV light from BlueWave 200 spot light to crosslink both gels together to form a fused, ringed-construct. Add DMEM-10 media to fill up the wells.
Anticancer Drug Screening: On day 5, 1 μM, 10 μM, and 100 μM drug solutions of 5-FU were added to ringed constructs and 1 μM, 10 μM, and 100 μM drug solutions of Regorafenib were added to separate ringed constructs. Three duplicates were generated for each of the drug concentrations and a no-drug control was maintained as well.
Live-Dead Staining and Microscopy: On day 7, the ringed-constructs underwent a Live-Dead stain and the construct were imaged on an Axiovert 200M 487-1 microscope (Carl Zeiss AG, Oberkochen, Germany). […]

[2] = test system: SW480 cells; experiment: 3D hyaluronan-based hydrogel construct drug screen, MTS assay; conditions: Homo sapiens
Protocol: (§1) Polydimethylsiloxane, or PDMS, was used to coat the bottom of the wells. Cells were embedded within the hyaluronan-based hydrogel and were given 5 days to acclimate to their three-dimensional environment and on day 5 were administered different anticancer drug solutions (FIG. 7, panel A). […] At 100 μM concentrations of Regorafenib and Sorafenib, cellular viability remained below 25% that of the control for all four of the colorectal cancer cell lines utilized. The only exception to this was when 100 μM Regorafenib was administered to CACO2 cells and the percent relative cell viability rose to approximately 48%. […] At a 100 μM concentration, Dabrafenib had greater efficacy in targeting the HCT116 and SW480 cell lines, which had relative cellular viability values of 38% and 43%, as opposed to the HT29 and CACO2 cell lines, which had higher cell viability values of 93% and 75%. 100 μM concentrations of Trametinib produced relative cellular viability results that fell within a narrow range for the four colorectal cell lines with values of 54% for SW480 cells and 74% for HT29 cells.
(§2) Well Coating with PDMS and Cell Isolation: Polydimethylsiloxane, or PDMS, (DOW Corning, North Carolina, USA) was used at a 1:10 curing agent ratio to coat the bottom of the 96-well plates and the plates were then placed in a 80° C. oven for at least one hour. Cells were passaged in the same methods previously mentioned (A) with the desire to place 10 μL 3D hyaluronan-based hydrogel constructs containing 100,000 cells each ([…]) into the wells of a 96-wells plate for all four colorectal cancer cell types. Depending on the cell count, a desired number of cells were isolated in new 15 mL centrifuge tubes as cell-media solution and underwent centrifugation.
(§3) Hydrogel Components of the Single-Cell Type Constructs: The hyaluronic acid-based hydrogel (ESI BIO, California, USA) was produced using a mixture of three components: Heprasil, Gelin-S, and Extralink PEGDA 2-ARM Acrylate crosslinker. These components were mixed in a 2:2:1 ratio by volume. 0.1% Irgacure photoinitiator (Sigma-Aldrich, Missouri, USA) was added to each of the three components prior to their mixture and the three components were placed in a 37° C. incubator for a ˜30 minutes to solubilize.
(§4) Forming Organoid Constructs: Once solubilized, the media was aspirated from the 15 mL centrifuge tube (post-centrifugation) and the cells were isolated as a pellet. The hydrogel components were added directly into the centrifuge tube containing the cells and the cells were carefully resuspended in the mixture. 10 μL of the gel-cell solution was placed in the center of the wells on the PDMS coating. This was continued for all wells containing cells and was repeated for each cell type. After this point, the gel can be exposed to UV light from a BlueWave 200 spot light (Dymax, Connecticut, USA) to solidify the hydrogel, or one can wait ˜30 minutes for the gel to form on its own. DMEM-10 media was then placed in the wells and the constructs were incubated for 5 days.
(§5) Anticancer Drug Screening and Cell Viability: The same five anticancer drugs were added on Day 5 and the cell viability assay occurred on Day 7.

[3] = test system: HT29 cells; experiment: as above; conditions: Homo sapiens
Protocol: as §1, §2, §3, §4, §5

## O=c1[nH]cc(F)c(=O)[nH]1 [5-FU, 5-Fluorouracil]
[1]; 1 μM
  % dead: % live ratio: 0.95
[1]; 10 μM
  % dead: % live ratio: 0.78
[1]; 100 μM
  % dead: % live ratio: 0.98
[1]
  cell type targeted in ringed construct (live-dead images): targeting both cell types to similar degrees; also recorded: universal cell death of both HCT116 and CACO2
[2]; 10 mM, SW480, read-out: percent relative cell viability (MTS, relative to control)
  viability at 10000 µM: 9%
[2]; 100 mM, SW480, read-out: percent relative cell viability (MTS, relative to control)
  viability at 100000 µM: 48%
[3]; HT-29, 10 mM, HT29, read-out: percent relative cell viability (MTS, relative to control)
  viability at 10000 µM: 50%

## CNC(=O)c1cc(Oc2ccc(NC(=O)Nc3ccc(Cl)c(C(F)(F)F)c3)c(F)c2)ccn1 [Regorafenib]
[1]; 1 μM
  % dead: % live ratio: 0.48
[1]; 10 μM
  % dead: % live ratio: 0.08
[1]; 100 μM
  % dead: % live ratio: 0.98
[1]
  cell type targeted in ringed construct (live-dead images): inner HCT116 cells were affected by Regorafenib to a greater extent than the CACO2 cells; also recorded: targeted cell death of HCT116
[2]; 100 μM, SW480, drug day 5, assay day 7, read-out: percent relative cell viability (MTS, relative to control)
  viability at 100 µM: < 25%
[3]; HT-29, 100 μM, HT29, drug day 5, assay day 7, read-out: percent relative cell viability (MTS, relative to control)
  viability at 100 µM: < 25%
